Data reported in patent US20070196395A1, “Immunomodulatory compounds that target and inhibit the py'binding site of tyrosene kinase p56 lck sh2 domain” (priority 2003, published 2007).

What was measured:
[1] = test system: lymphocytes from two different strains of mice (B6 black and balb/c); test: Mixed lymphocyte culture, 3H-thymidine uptake; format: cell-based, mouse; conditions: 100 μM to 1 μM; biphasic = inhibition at 100 μM, activation at 1 μM
Protocol: 100 mM solutions of compounds were prepared in DMSO.
Mixed lymphocyte culture assays were performed where lymphocytes from two different strains of mice with different histocompatibility antigens were mixed. Due to the difference in the histocompatibility antigens, resting T cells from both strains of mice will undergo blast transformation and propagate. As in any T cell activation process, the activation of Lck is essential. Therefore, the modulation of activation of Lck can be quantified as the downstream modulation in the levels of ^3H-TdR incorporation into DNA. 24 out of the 34 identified compounds were tested […], with 13 compounds showing inhibitory activity at a 100 μM concentration (FIG. 2). Thus, over 50% of the compounds identified by the in vitro assay also show activity in the cellular functional assay at the conditions described herein. These compounds represent the most promising leads for further development. […] Such effects may be associated with the regulatory mechanism of p56 Lck.
Another readout assay that is used to measure biological response is a mixed lymphocyte culture assay in which lymphocytes from two. different strains of mice with different histocompatibility antigens are mixed. Due to the difference in the histocompatibility antigens, resting T cells from both strains of mice undergo blast transformation and propagate. As in any T cell activation process, the activation of p56^lck is essential. Therefore, the modulation of p56^lck activity can be quantified as the downstream modulation in the levels of [^3H]-TdR incorporation into DNA.
Lymph node or splenic lymphocytes are harvested from two different allogeneic strains of mice. Cells (1×10^6) from each strain are mixed in 96 well culture plates containing 200 μl of culture medium in the presence or absence of the compound (0.1˜100 μM) and cultured for 72 h. Six hours before harvest, 0.5 μCi of [^3H]-TdR is added to each well. […] Filters are washed with PBS and then with ethanol and [^3H]-TdR incorporated into DNA is measured using scintillation counting. […]

SH2 domain of p56 Lck = SH2 domain of p56 Lck (Homo sapiens, UniProt P06239); test: Inhibition of binding of the CD3ζ ITAM2 peptide to the SH2 domain of p56 Lck (affinity precipitation from Jurkat cell lysate, immunoblot); conditions: 100 μM; decreased blot intensity vs control
Sequence of SH2 domain of p56 Lck (P06239 whole entry, the tested form may be a part): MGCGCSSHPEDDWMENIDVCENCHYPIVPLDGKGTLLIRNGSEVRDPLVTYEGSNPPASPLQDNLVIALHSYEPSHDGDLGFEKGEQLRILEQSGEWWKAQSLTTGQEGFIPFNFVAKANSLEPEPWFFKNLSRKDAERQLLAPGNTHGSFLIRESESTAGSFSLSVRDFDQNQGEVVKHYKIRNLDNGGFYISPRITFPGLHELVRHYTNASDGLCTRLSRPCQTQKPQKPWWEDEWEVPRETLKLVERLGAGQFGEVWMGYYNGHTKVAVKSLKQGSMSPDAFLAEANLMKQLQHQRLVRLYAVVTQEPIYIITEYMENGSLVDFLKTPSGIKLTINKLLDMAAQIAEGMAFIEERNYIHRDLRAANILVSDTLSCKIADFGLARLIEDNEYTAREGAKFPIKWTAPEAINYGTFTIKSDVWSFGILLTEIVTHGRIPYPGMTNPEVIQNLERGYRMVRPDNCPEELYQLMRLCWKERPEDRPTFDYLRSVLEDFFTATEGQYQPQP
Protocol: In vitro Assay for the Inhibition of Binding of the CD3ζ ITAM2 Peptide to the SH2 Domain of p56 Lck. […] Inhibition of binding was assayed by affinity precipitation of p56Lck in cell lysates as follows.
Confluent cells were harvested, washed 3 times in chilled, sterile phosphate buffered saline (PBS, BioSource), and were resuspended (5×10^5 /ml) in lysis buffer containing 1% Triton X-100 (Fisher), 1 mM EDTA (Fisher), 0.2 mM sodium orthovanadate, 500 μM AEBSF, 150 nM aprotinin, 1 μM E-64, 0.5 mM EDTA, and 1 μM leupeptin (Protease Cocktail Set I, Calbiochem, San Diego, Calif.). The suspension was sonicated on ice at 60 W power (VibraCell, Sonics and Materials, Danbury, Conn.) for 6×5 second bursts with a 1 minute cooling period between bursts. The resulting lysate was then centrifuged at 20,000 x g (RC-5B, Sorvall, Newtown, Conn.) at 4° C., and the supernatent was used in the assay.
Putative inhibitors to be tested were freshly dissolved in dimethyl sulfoxide (DMSO, cell culture grade, Sigrna) at a concentration of 10 mM before the assay and 10 μl of this was added to 1 ml of cell lysate in 1.5 ml tubes (Sarstedt, Newton, North Carolina). The tubes were placed on an end-over-end rotator (Model C400110, Barnstead/Thermolyne, Dubuque, Iowa) at 4° C. and allowed to rotate for 30 minutes. 20 μl of a 50% slurry of the ITAM-conjugated agarose beads (in PBS; EM Science, Gibbstown, New Jersey) was then added to each tube, and tubes were rotated overnight.
The beads were washed 3 times in 800 μl lysis buffer. Excess lysis buffer was aspirated off, and 10 ml sample loading buffer containing 3% β-mercaptoethanol (Fisher) was added to the beads and, after brief vortexing and soiication, tubes were immersed in a boiling water bath for 2 minutes. They were then centrifuged and the supernatent was loaded onto 8% Tris-HCl gels (GeneMate, ISC Bioexpress, Kaysville, Utah) and run at 100 V for 1.5 hours in a Protean III Mini Gel Unit (Bio-Rad, Hercules, Calif.). The gels were transferred onto polyvinylidene fluoride membrane (Immobilon-P, Millipore, Bedford, Mass.) in a Mini Trans-Blot Electrophoretic Transfer Cell ,(Bio-Rad). The membrane was blocked with PBS (EM Science) solution containing 5% powdered milk (Nestle, Solon, Ohio) for 1 hour; exposed to primary antibody (anti-lck, rabbit polyclonal IgG, Upstate Biotechnologies, Lake Placid, N.Y.) at 1:5000 dilution in 1% w/v powdered milk (Nestle, Solon, Ohio) in PBST [PBS containing 0.5% v/v Tween 20 (Sigma, St. Louis, Mo.)] and washed 3 times for 5 minutes each in PBST. […]

Row | SMILES | activity profile in mixed lymphocyte culture assay across tested concentrations [1] | inhibition of p56 Lck SH2 domain association with phosphotyrosine-containing ITAM2 peptide (SH2 domain of p56 Lck)
1 | N=C1S/C(=C/c2ccc(-c3cccc(C(=O)O)c3)o2)C(=O)N1c1ccc(F)cc1 [Compound 73] | inhibition | 
2 | Cc1ccc(NC(=O)c2cccc(NC(=O)c3ccccc3C(=O)O)c2)cc1C [Compound 99] | Biphasic | 
3 | COc1ccc(OC)c(NC(=O)CCNC(=O)Cn2cnc3ccccc3c2=O)c1 [Compound 139] | Biphasic | 
4 | O=C(O)CSc1nsc(SCC(=O)O)n1 [Compound 232] |  | significant inhibitory activities
5 | Nc1nnc(SCc2ccc(C(=O)O)cc2)s1 [Compound 239] |  | significant inhibitory activities
6 | O=C(O)CC1S/C(=N\N=C2\CCCc3ccccc32)NC1=O (stereo not shown) [Compound 245] |  | significant inhibitory activities
7 | O=C(O)CSc1cccnc1Sc1ccc(Cl)cc1 [Compound 262] |  | significant inhibitory activities
